Reference: PubChem BioAssay (NCI)
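Tested at 5 concentrations; 48 h exposure; 96-well plates; endpoints linearly interpolated, else capped at highest concentration. At the GI50, growth is halved. TGI denotes the concentration required for complete inhibition of growth.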

What was measured:
Experiment in all cases: NCI-60 cell line screen, 48 h
786-0 renal = test system: 786-0 renal
A498 renal = test system: A498 renal
A549 NSCLC = test system: A549 NSCLC
ACHN renal = test system: ACHN renal
BT-549 breast = test system: BT-549 breast
CCRF-CEM leukemia = test system: CCRF-CEM leukemia
COLO 205 colon = test system: COLO 205 colon
DU-145 prostate = test system: DU-145 prostate
EKVX NSCLC = test system: EKVX NSCLC
HCC-2998 colon = test system: HCC-2998 colon
HCT-116 colon = test system: HCT-116 colon
HCT-15 colon = test system: HCT-15 colon
HL-60(TB) leukemia = test system: HL-60(TB) leukemia
HOP-62 NSCLC = test system: HOP-62 NSCLC
HOP-92 NSCLC = test system: HOP-92 NSCLC
HS 578T breast = test system: HS 578T breast
HT29 colon = test system: HT29 colon
IGROV1 ovarian = test system: IGROV1 ovarian
K-562 leukemia = test system: K-562 leukemia
KM12 colon = test system: KM12 colon
LOX IMVI melanoma = test system: LOX IMVI melanoma
M14 melanoma = test system: M14 melanoma
MALME-3M melanoma = test system: MALME-3M melanoma
MDA-MB-231 breast = test system: MDA-MB-231 breast
MDA-MB-435 = test system: MDA-MB-435
MOLT-4 leukemia = test system: MOLT-4 leukemia
NCI-H226 lung = test system: NCI-H226 lung
NCI-H23 lung = test system: NCI-H23 lung
NCI-H460 lung = test system: NCI-H460 lung
NCI-H522 lung = test system: NCI-H522 lung
NCI/ADR-RES ovarian = test system: NCI/ADR-RES ovarian
OVCAR-3 ovarian = test system: OVCAR-3 ovarian
OVCAR-4 ovarian = test system: OVCAR-4 ovarian
OVCAR-5 ovarian = test system: OVCAR-5 ovarian
OVCAR-8 ovarian = test system: OVCAR-8 ovarian
PC-3 prostate = test system: PC-3 prostate
RPMI-8226 leukemia = test system: RPMI-8226 leukemia
RXF 393 renal = test system: RXF 393 renal
SF-268 CNS = test system: SF-268 CNS
SF-295 CNS = test system: SF-295 CNS
SF-539 CNS = test system: SF-539 CNS
SK-MEL-2 melanoma = test system: SK-MEL-2 melanoma
SK-MEL-28 melanoma = test system: SK-MEL-28 melanoma
SK-MEL-5 melanoma = test system: SK-MEL-5 melanoma
SK-OV-3 ovarian = test system: SK-OV-3 ovarian
SN12C renal = test system: SN12C renal
SNB-19 CNS = test system: SNB-19 CNS
SNB-75 CNS = test system: SNB-75 CNS
SR leukemia = test system: SR leukemia
SW-620 colon = test system: SW-620 colon
T-47D breast = test system: T-47D breast
TK-10 renal = test system: TK-10 renal
U251 CNS = test system: U251 CNS
UACC-257 melanoma = test system: UACC-257 melanoma
UACC-62 melanoma = test system: UACC-62 melanoma
UO-31 renal = test system: UO-31 renal

C=C1C(=O)O[C@H]2[C@H]1CC/C(COC(=O)c1cc(OC)c(OC)c(OC)c1)=C\CC[C@@]1(C)O[C@@H]21
GI50 (786-0 renal): 1.27 µM | TGI (786-0 renal): 2.72 µM | GI50 (A498 renal): 2.57 µM | TGI (A498 renal): 8.56 µM | GI50 (A549 NSCLC): 3.05 µM | TGI (A549 NSCLC): 12.1 µM | GI50 (ACHN renal): 0.743 µM | TGI (ACHN renal): 2.02 µM | GI50 (BT-549 breast): 1.06 µM | TGI (BT-549 breast): 2.35 µM | GI50 (CCRF-CEM leukemia): 0.293 µM | TGI (CCRF-CEM leukemia): 2.28 µM | GI50 (COLO 205 colon): 1.18 µM | TGI (COLO 205 colon): 3.09 µM | GI50 (DU-145 prostate): 1.23 µM | TGI (DU-145 prostate): 2.47 µM | GI50 (EKVX NSCLC): 1.78 µM | TGI (EKVX NSCLC): 4.5 µM | GI50 (HCC-2998 colon): 1.92 µM | TGI (HCC-2998 colon): 3.88 µM | GI50 (HCT-116 colon): 0.409 µM | TGI (HCT-116 colon): 1.48 µM | GI50 (HCT-15 colon): 0.418 µM | TGI (HCT-15 colon): 1.82 µM | GI50 (HL-60(TB) leukemia): 0.711 µM | TGI (HL-60(TB) leukemia): 2.95 µM | GI50 (HOP-62 NSCLC): 2.4 µM | TGI (HOP-62 NSCLC): 11.5 µM | GI50 (HOP-92 NSCLC): 0.523 µM | TGI (HOP-92 NSCLC): 2.1 µM | GI50 (HS 578T breast): 3.68 µM | TGI (HS 578T breast): 32.7 µM | GI50 (HT29 colon): 0.441 µM | TGI (HT29 colon): 2.09 µM | GI50 (IGROV1 ovarian): 0.477 µM | TGI (IGROV1 ovarian): 2.05 µM | GI50 (K-562 leukemia): 0.388 µM | TGI (K-562 leukemia): 11.5 µM | GI50 (KM12 colon): 2.26 µM | TGI (KM12 colon): 5.82 µM | GI50 (LOX IMVI melanoma): 1.34 µM | TGI (LOX IMVI melanoma): 2.73 µM | GI50 (M14 melanoma): 1.27 µM | TGI (M14 melanoma): 3.05 µM | GI50 (MALME-3M melanoma): 1.77 µM | TGI (MALME-3M melanoma): 3.77 µM | GI50 (MDA-MB-231 breast): 1.54 µM | TGI (MDA-MB-231 breast): 4.16 µM | GI50 (MDA-MB-435): 1.64 µM | TGI (MDA-MB-435): 4.13 µM | GI50 (MOLT-4 leukemia): 1.64 µM | TGI (MOLT-4 leukemia): 5.55 µM | GI50 (NCI-H226 lung): 1.4 µM | TGI (NCI-H226 lung): 3.63 µM | GI50 (NCI-H23 lung): 1.7 µM | TGI (NCI-H23 lung): 3.95 µM | GI50 (NCI-H460 lung): 2.35 µM | TGI (NCI-H460 lung): 6.52 µM | GI50 (NCI-H522 lung): 0.589 µM | TGI (NCI-H522 lung): 2.25 µM | GI50 (NCI/ADR-RES ovarian): 2.87 µM | TGI (NCI/ADR-RES ovarian): 13.8 µM | GI50 (OVCAR-3 ovarian): 0.39 µM | TGI (OVCAR-3 ovarian): 1.44 µM | GI50 (OVCAR-4 ovarian): 2.09 µM | TGI (OVCAR-4 ovarian): 6.11 µM | GI50 (OVCAR-5 ovarian): 1.76 µM | TGI (OVCAR-5 ovarian): 5.08 µM | GI50 (OVCAR-8 ovarian): 1.85 µM | TGI (OVCAR-8 ovarian): 10.3 µM | GI50 (PC-3 prostate): 1.8 µM | TGI (PC-3 prostate): 4.49 µM | GI50 (RPMI-8226 leukemia): 0.422 µM | TGI (RPMI-8226 leukemia): 2.34 µM | GI50 (RXF 393 renal): 0.299 µM | TGI (RXF 393 renal): 1.27 µM | GI50 (SF-268 CNS): 1.46 µM | TGI (SF-268 CNS): 3.42 µM | GI50 (SF-295 CNS): 3.84 µM | TGI (SF-295 CNS): 15.8 µM | GI50 (SF-539 CNS): 0.895 µM | TGI (SF-539 CNS): 2.24 µM | GI50 (SK-MEL-2 melanoma): 1.6 µM | TGI (SK-MEL-2 melanoma): 3.63 µM | GI50 (SK-MEL-28 melanoma): 1.59 µM | TGI (SK-MEL-28 melanoma): 3.37 µM | GI50 (SK-MEL-5 melanoma): 1.68 µM | TGI (SK-MEL-5 melanoma): 3.05 µM | GI50 (SK-OV-3 ovarian): 5.22 µM | TGI (SK-OV-3 ovarian): 16.8 µM | GI50 (SN12C renal): 1.24 µM | TGI (SN12C renal): 3.12 µM | GI50 (SNB-19 CNS): 2.55 µM | TGI (SNB-19 CNS): 10.6 µM | GI50 (SNB-75 CNS): 7.92 µM | TGI (SNB-75 CNS): 21.6 µM | GI50 (SR leukemia): 0.342 µM | TGI (SR leukemia): 7.33 µM | GI50 (SW-620 colon): 0.355 µM | TGI (SW-620 colon): 1.57 µM | GI50 (T-47D breast): 0.931 µM | TGI (T-47D breast): 3.54 µM | GI50 (TK-10 renal): 1.22 µM | TGI (TK-10 renal): 2.7 µM | GI50 (U251 CNS): 1.6 µM | TGI (U251 CNS): 3.47 µM | GI50 (UACC-257 melanoma): 1.39 µM | TGI (UACC-257 melanoma): 3.12 µM | GI50 (UACC-62 melanoma): 1.18 µM | TGI (UACC-62 melanoma): 2.67 µM | GI50 (UO-31 renal): 0.402 µM | TGI (UO-31 renal): 1.7 µM
